Where two headings read alike, the source gives them in different places.
How the values were obtained:
[1] = target: T1, mitochondrial complex III (Homo sapiens, UniProt P00156+P47985); test: Complex III-dependent oxygen consumption (OCR), Seahorse XF-96, HCT116 cells; assay type: cell-based; details: for effect on complex III-induced oxygen consumption: HCT116, 24 hr; for IC50: mean ± SD, HCT116, 24 hr treatment, read-out: IC50 Complex III (FIG. 2)
T1 construct: other: mean ± SD; HCT116, 24 hr treatment; Complex III activity (OCR, % of control); other: 0.1 μM, 24 hr, HCT116; n = 4; other: 0.5 μM, 24 hr, HCT116; other: 0.75 μM, 24 hr, HCT116; other: 1 μM, 24 hr, HCT116; Compl
Procedure: (§1) FIG. 2. Effects of HU and Mito-HUs on the oxygen consumption by mitochondrial complexes I and III (A) Dose-dependent effects of HU, Mito10-HU, Mito12-HU, Mito14-HU, Mito16-HU, and Mito20-HU on complex I- and complex III-dependent oxygen consumption were measured in HCT116 cells. HCT116 cells were treated with HU or Mito-HUs as indicated for 24 hr. Mitochondrial complex I activity (left) and complex III activity (right) were monitored by a Seahorse XF-96 analyzer. Either rotenone (complex I inhibitor) or antimycin A (complex III inhibitor) was acutely added and OCR assayed immediately. (B) The mitochondrial complex I (left) and III (right) dependent oxygen consumption (calculated as rotenone or antimycin A inhibitable OCR) are plotted against concentration of HU and Mito-HUs. Dashed lines represent the fitting curves used for determination of the IC50 values. Data shown are the means G SD.
(§2) Mitochondrial oxygen consumption was measured using the Seahorse XF-96 Extracellular Flux Analyzer (Agilent, North Billerica, MA) (Cheng et al., 2013, 2016; Boyle et al., 2018; Weinberg and Chandel, 2015). After cells were treated with HU or Mito-HUs for 24 hr, the OCR-based assessment of mitochondrial complex activities was carried out on acutely permeabilized cells in the presence of different mitochondrial substrates, i.e., pyruvate/malate for complex I and duroquinol for complex III (Cheng et al., 2016, 2019; Salabei et al., 2014; Wheaton et al., 2014). Rotenone, malonate, and antimycin A (Sigma-Aldrich, St. Louis, MO) were used as specific inhibitors of mitochondrial complexes I, II, and III, respectively. Briefly, cells that were intact after treatments were immediately permeabilized using the Seahorse XF Plasma Membrane Permeabilizer (Agilent). The mitochondrial complex I-induced OCR was assayed in mannitol and sucrose buffer (Salabei et al., 2014) containing 10 mM pyruvate and 1.5 mM malate (substrates for complex I) and 10 mM malonate (which inhibits complex II activities). The mitochondrial complex III-driven OCR was assayed in a mannitol and sucrose buffer containing 0.5 mM duroquinol (substrate for complex III) as well as […] and 10 mM malonate (which inhibit both complex I and II activities). The IC50 values were determined as previously reported (Cheng et al., 2019).

[2] = test system: HCT116 human colon cancer cells; test: Cell proliferation (cell confluence), IncuCyte Live-Cell Analysis system; assay type: cell-based; details: for Cell Confluence (%): when control cells reached ~90% confluence, n = 4; for IC50: Homo sapiens, at ~90% confluence of control
Description: FIG. 1. Effects of HU and Mito-HUs on proliferation of HCT116 human colon cancer cells (A) Effects of HU and Mito-HUs on the proliferation of HCT116 cells were monitored in the IncuCyte Live-Cell Analysis system. The IncuCyte Analyzer provides real-time updates on cell confluence, based on segmentation of high definition-phase contrast images. Representative cell images were shown as segmentation mask illustrated in brown when control cells reached 90% confluence (vertical solid black line). (B) The IC50 values were determined at the point at which control cells reached ˜90% confluence (vertical solid black line). Relative cell confluence (control is taken as 100%) is plotted against concentration. Dashed lines represent the fitting curves used to determine the IC50 values as indicated. Data shown are the means & SD.
(§3) The following cell lines were obtained from the American Type Culture Collection (Manassas, VA), where they were regularly authenticated: HCT116 (ATCC Cat #CRL-247, human colon cancer cells) and MiaPaCa-2 (ATCC Cat #CRL-1420, human pancreatic cancer cells). All cells were cultured in a humidified incubator at 37° C. and 5% carbon dioxide. HCT116 cells were maintained in RPMI 1640 medium (Thermo Fisher Scientific, Cat #11875), supplemented with 10% fetal bovine serum. MiaPaCa-2 cells were maintained in Dulbecco's Modified Eagle Medium (Thermo Fisher Scientific, Waltham, MA; Cat #11965) supplemented with 10% fetal bovine serum. All cells were stored in liquid nitrogen and used within 20 passages after thawing.
(§4) The IncuCyte Live-Cell Analysis system (Essen Bioscience Inc., Ann Arbor, MI) was used to monitor cell proliferation (Cheng et al., 2013, 2016; Boyle et al., 2018). As shown in previous publications (Cheng et al., 2013, 2016), this imaging system is probe-free and noninvasive, and enables continuous monitoring of cell confluence over several days. The increase in the percentage of cell confluence was used as a surrogate marker of cell proliferation. In a 96-well plate, cells were plated at 1,000 cells per well in triplicates and left to adhere overnight. Cells were then treated with HU and Mito-HUs, and the cell confluency was recorded over several days in the IncuCyte Live-Cell Analysis system.

[3] = test system: HCT116 human colon cancer cells; test: as above; assay type: cell-based
mitochondrial complex I = mitochondrial complex I (Homo sapiens, UniProt O75251+O75306+P03886); test: Complex I-dependent oxygen consumption (OCR), Seahorse XF-96, HCT116 cells; assay type: cell-based; details: for effect on complex I-induced oxygen consumption: HCT116, 24 hr; for IC50: mean ± SD, HCT116, 24 hr treatment, read-out: IC50 Complex I (FIG. 2)
Procedure: as §1, §2

[4] = test system: MiaPaCa-2 human pancreatic cancer cells; test: Cell proliferation, IncuCyte Live-Cell Analysis system; assay type: cell-based
Description: FIG. 7. Effects of HU and Mito10-HU on proliferation of MiaPaCa-2 human pancreatic cancer cells; MiaPaCa-2 cells treated with HU or Mito10-HU were monitored in the IncuCyte Live-Cell Analysis system. Cell proliferation was monitored in real-time with the continuous presence of indicated treatments until the end of each experiment. Data shown are the means±SD.
as §3, §4

[5] = test system: mitochondrial complex III; test: Complex III-dependent oxygen consumption (OCR), Seahorse XF-96, HCT116 cells; assay type: cell-based, human; details: 24 hr, HCT116, n = 4
Procedure: as §1, §2

[6] = HCT-116, HCT116, read-out: IC50 proliferation of HCT116 cells
[7] = HCT-116, mean ± SD, HCT116, read-out: IC50 Cell Proliferation (FIG. 1)

NC(=O)NOCCCCCCCCCC[P+](c1ccccc1)(c1ccccc1)c1ccccc1.O=C([O-])C(F)(F)F [Mito10-HU, 10-[(carbamoylamino)oxy]-decyltriphenylphosphonium trifluoroacetate]
effect on complex III-induced oxygen consumption [1]: potently inhibited
IC50 [1]: 21 ± 0.72 µM
Cell Confluence (%) ([2]; 0.1 μM): 82.13%
Cell Confluence (%) ([2]; 0.3 μM): 84.69%
Cell Confluence (%) ([2]; 1 μM): 83.91%
Cell Confluence (%) ([2]; 3 μM): 64.31%
Cell Confluence (%) ([2]; 5 μM): 67.01%
Cell Confluence (%) ([2]; 10 μM): 26.84%
Cell Confluence (%) ([2]; 12.5 μM): 13.75%
Cell Confluence (%) ([2]; 15 μM): 8.68%
Cell Confluence (%) ([2]; 20 μM): 3.45%
Cell Confluence (%) ([2]; 30 μM): 1.74%
Cell Confluence (%) ([2]; 100 μM): 1.53%
inhibition of proliferation of HCT116 cells ([2]; HCT116): dose-dependently inhibited proliferation
IC50 [2, 6]: 8000 nM
IC50 [2, 7]: 8500 ± 410 nM
inhibition of cell proliferation, combination with AZD-3965 ([2]; Mito10-HU (5 μM) together with AZD-3965 (100 μM), HCT-116): synergistically inhibited
inhibition of cell proliferation, combination with syrosingopine (combination index) ([2]; Mito10-HU (5 μM) together with syrosingopine (7.5 μM), HCT116): synergistic
antiproliferative effect, each alone (AZD-3965 experiment) ([3]; Mito10-HU (5 μM) or AZD-3965 (100 μM) independently, HCT-116): negligible antiproliferative effects
effect on cell proliferation, each alone (syrosingopine experiment) ([3]; Mito10-HU (5 μM) or syrosingopine (7.5 μM) independently, HCT116): minimally affected cell proliferation
effect on complex I-induced oxygen consumption (mitochondrial complex I): potently inhibited
IC50 (mitochondrial complex I): 8900 ± 1220 nM
inhibition of proliferation of MiaPaCa-2 cells [4]: increasing antiproliferative potencies
potency compared with HU in inhibiting MiaPaCa-2 cell proliferation [4]: ~100 times

NC(=O)NOCCCCCCCCCCCCCCCCCCCC[P+](c1ccccc1)(c1ccccc1)c1ccccc1.O=C([O-])C(F)(F)F [Mito20-HU, 20-[(carbamoylamino)oxy]-eicosanyltriphenylphosphonium trifluoroacetate]
Complex III activity (OCR, % of control) ([5]; 0.03 μM): 98.80 % of control
Complex III activity (OCR, % of control) ([5]; 0.1 μM): 106.63 % of control
Complex III activity (OCR, % of control) ([5]; 0.2 μM): 101.11 % of control
Complex III activity (OCR, % of control) ([5]; 0.3 μM): 107.99 % of control
Complex III activity (OCR, % of control) ([5]; 0.5 μM): 102.43 % of control
Complex III activity (OCR, % of control) ([5]; 20 μM): 12.77 % of control
IC50 [1]: 4.2 ± 0.4 µM
inhibition of proliferation of HCT116 cells ([2]; HCT116): dose-dependently inhibited proliferation
IC50 [2, 6]: 230 nM
IC50 [2, 7]: 230 ± 20 nM
IC50 (mitochondrial complex I): 800 ± 60 nM
inhibition of proliferation of MiaPaCa-2 cells [4]: increasing antiproliferative potencies

NC(=O)NOCCCCCCCCCCCCCCCC[P+](c1ccccc1)(c1ccccc1)c1ccccc1.O=C([O-])C(F)(F)F [Mito16-HU, 16-[(carbamoylamino)oxy]-hexadecyltriphenylphosphonium trifluoroacetate]
Complex III activity (OCR, % of control) ([5]; 0.4 μM): 81.38 % of control
Complex III activity (OCR, % of control) ([5]; 0.5 μM): 79.37 % of control
Complex III activity (OCR, % of control) ([5]; 0.6 μM): 80.12 % of control
Complex III activity (OCR, % of control) ([5]; 0.8 μM): 68.47 % of control
effect on complex III-induced oxygen consumption [1]: potently inhibited
IC50 [1]: 2.6 ± 0.39 µM
inhibition of proliferation of HCT116 cells ([2]; HCT116): dose-dependently inhibited proliferation
IC50 [2, 6]: 510 nM
IC50 [2, 7]: 500 ± 10 nM
effect on complex I-induced oxygen consumption (mitochondrial complex I): potently inhibited
IC50 (mitochondrial complex I): 800 ± 50 nM
inhibition of proliferation of MiaPaCa-2 cells [4]: increasing antiproliferative potencies

From patent publication US20240109925A1, “Enhanced Anti-Proliferative and Antitumor Immune Effects of Mitochondria-Targeted Hydroxyurea” (The Medical College of Wisconsin, Inc., priority 2021, published 2024)
